Experimental data from patent US7763657B2, “Compounds, isomer thereof, or pharmaceutically acceptable salts thereof as vanilloid receptor antagonist; and pharmaceutical compositions containing the same” (Amorepacific Corporation, priority 2005, dated 2010).

Each compound was assayed against T1, vanilloid receptor (Rattus norvegicus, UniProt O35433) (assay: 45Ca influx test (calcium uptake) in primary cultured DRG neurons, antagonism of capsaicin). Conditions: neonatal SD rat DRG nerve cells; capsaicin 0.5 μM; 45Ca 10 μCi/ml; 10 mins room temperature; read-out: Antagonist Calcium Uptake Test (IC50).
T1 construct: DRG nerve cells from the primary culture of 2 days were equilibrated; endogenous in cells; host or cells: primary cultured dorsal root ganglion neurons of neonatal SD rats
Assay type: cell-based
Procedure: 1) Separation of Spinal Dorsal Root Ganglia (DRG) in Newborn Rats and Primary Culture Thereof
Neonatal (2-3 day old or younger than 2-3 day old) SD rats were put in ice for 5 minutes to anesthetize and disinfected with 70% ethanol. […] The DRG were incubated sequentially at 37° C. for 30 min in 200 U/ml collagenase and 2.5 mg/ml trypsin, separately. The ganglia were washed twice with DME/F12 medium supplemented with 10% horse serum, triturated through a fire-polished Pasteur pipette, filtered through Nitex 80 membrane to obtain single cell suspension and the suspension was washed once more. This was subjected to centrifugation, then resuspended in cell culture medium at certain level of cell density. As the cell culture medium, DME/F12 medium supplemented with 10% horse serum was diluted with identical medium conditioned by C6 glioma cells 2 days on a confluent monolayer (1:1), and NGF (Nerve Growth Factor) was added to adjust 200 ng/ml as final concentration. After the cells were grown 2 days in medium where cytosine arabinoside (Ara-C, 100 μM) was added to kill dividing nonneuronal cells, medium was changed to one without Ara-C. The resuspended cells were plated at a density of 1500-2000 neurons/well onto Terasaki plates previously coated with 10 μg/ml poly-D-ornithine.
2) ^45Ca Influx Experiments
DRG nerve cells from the primary culture of 2 days were equilibrated by washing 4 times with HEPES (10 mM, pH 7.4)-buffered Ca^2+, Mg^2+-free HBSS (H—HBSS). The solution in each well was removed from the individual well. Medium containing the test compound plus capsaicin (final concentration 0.5 μM) and ^45Ca (final concentration 10 μCi/ml) in H—HBSS was added to each well and incubated at room temperature for 10 mins. Terasaki plates were washed five times with H—HBSS and dried at room temperature. To each well, 0.3% SDS (10 μl) was added to elute ^45Ca. After the addition of scintillation cocktail of into each well, the amount of ^45Ca influx into neuron was measured by counting radioactivity.

T1 sequence (O35433 whole entry): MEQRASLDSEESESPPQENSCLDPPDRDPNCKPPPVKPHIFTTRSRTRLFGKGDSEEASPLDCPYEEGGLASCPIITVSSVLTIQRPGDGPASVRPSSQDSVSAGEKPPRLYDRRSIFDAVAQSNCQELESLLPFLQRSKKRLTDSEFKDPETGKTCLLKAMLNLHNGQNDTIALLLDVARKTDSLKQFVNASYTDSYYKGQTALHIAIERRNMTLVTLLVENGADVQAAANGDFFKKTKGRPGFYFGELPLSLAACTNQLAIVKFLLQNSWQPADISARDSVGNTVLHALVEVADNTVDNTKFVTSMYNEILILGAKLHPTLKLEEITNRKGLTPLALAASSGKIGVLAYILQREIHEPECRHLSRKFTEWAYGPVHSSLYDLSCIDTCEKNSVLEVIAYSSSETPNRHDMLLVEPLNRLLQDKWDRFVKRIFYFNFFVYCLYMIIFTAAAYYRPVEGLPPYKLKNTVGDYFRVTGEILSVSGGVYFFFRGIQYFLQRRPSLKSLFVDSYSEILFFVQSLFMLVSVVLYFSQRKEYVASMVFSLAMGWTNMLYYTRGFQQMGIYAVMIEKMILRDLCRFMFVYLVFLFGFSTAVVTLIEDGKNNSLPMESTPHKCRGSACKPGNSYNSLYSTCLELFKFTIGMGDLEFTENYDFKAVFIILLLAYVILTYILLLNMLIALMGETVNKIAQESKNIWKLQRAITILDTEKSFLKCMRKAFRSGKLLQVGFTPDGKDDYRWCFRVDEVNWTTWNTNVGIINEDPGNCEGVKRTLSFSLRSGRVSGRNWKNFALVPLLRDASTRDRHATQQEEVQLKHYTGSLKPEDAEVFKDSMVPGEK

Row | Compound | IC50 [nM]
1 | C=Cc1cc(CNC(=O)NCc2ccc(C(C)(C)C)cc2)ccc1NS(C)(=O)=O [Example 1, N-{4-[3-(4-t-butylbenzyl)ureidomethyl]-2-vinylphenyl}methanesulfonamide] | 160
2 | C#Cc1cc(CNC(=O)NCc2ccc(C(C)(C)C)cc2)cc(F)c1NS(C)(=O)=O [Example 3, N-{4-[3-(4-t-butylbenzyl)ureidomethyl]-2-ethynyl-6-fluorophenyl}methanesulfonamide] | 180
3 | C=Cc1cc(CNC(=O)NCc2ccc(C(C)(C)C)cc2)c(Cl)cc1NS(C)(=O)=O [Example 4, N-{4-[3-(4-t-butylbenzyl)ureidomethyl]-5-chloro-2-vinylphenyl}methanesulfonamide] | 170
4 | C#Cc1cc(CNC(=O)NCc2ccc(C(C)(C)C)cc2)c(Cl)cc1NS(C)(=O)=O [Example 5, N-{4-[3-(4-t-butylbenzyl)ureidomethyl]-5-chloro-2-ethynylphenyl}methanesulfonamide] | 490
5 | C=Cc1cc([C@@H](C)NC(=O)NCc2ccc(C(C)(C)C)cc2)cc(F)c1NS(C)(=O)=O [Example 7, (R)—N-(4-{1-[3-(4-tert-Butyl-benzyl)-ureido]-ethyl}-2-fluoro-6-vinyl-phenyl)-methanesulfonamide] | 39
6 | C=Cc1cc(CNC(=O)NCc2ccc(C(C)(C)C)cc2)cc(C)c1NS(C)(=O)=O [Example 8, N-{4-[3-(4-tert-Butyl-benzyl)-ureidomethyl]-2-methyl-6-vinyl-phenyl}-methanesulfonamide] | 310
7 | C=Cc1cc(CNC(=O)NCc2ccc(C(C)(C)C)cc2)cc(Cl)c1NS(C)(=O)=O [Example 9, N-{4-[3-(4-tert-Butyl-benzyl)-ureidomethyl]-2-chloro-6-vinyl-phenyl}-methanesulfonamide] | 130
8 | C=Cc1cc([C@@H](C)NC(=O)C#Cc2ccc(C(C)(C)C)cc2)ccc1NS(C)(=O)=O [Example 11, 3-(4-t-butylphenyl)-N-[1-(R)-(4-methanesulfonylamino-3-vinylphenyl)ethyl]propiolicamide] | 79
9 | C=Cc1cc(CNC(=O)C#Cc2ccc(C(C)(C)C)cc2)cc(F)c1NS(C)(=O)=O [Example 12, 3-(4-tert-Butylphenyl)propynoic acid 3-fluoro-4-methanesulfonylamino-5-vinylbenzylamide] | 87
10 | C=Cc1cc([C@@H](C)NC(=O)C#Cc2ccc(C(C)(C)C)cc2)cc(F)c1NS(C)(=O)=O [Example 13, 3-(4-tert-Butylphenyl)propynoic acid N-[1-(3-fluoro-4-methanesulfonylamino-5-vinylphenyl)ethyl]amide] | 150
11 | C=Cc1cc(CNC(=O)/C=C/c2ccc(C(C)(C)C)cc2)cc(Cl)c1NS(C)(=O)=O [Example 21, 3-(4-tert-Butylphenyl)-N-(3-chloro-4-methanesulfonylamino-5-vinylbenzyl)acrylamide] | 160
12 | C=Cc1cc(CNC(=O)/C=C/c2ccc(C(C)(C)C)cc2N2CCOCC2)cc(F)c1NS(C)(=O)=O [Example 22, 3-(4-tert-Butyl-2-morpholin-4-yl-phenyl)-N-(3-fluoro-4-methanesulfonylamino-5-vinylbenzyl)acrylamide] | 250
13 | C=Cc1cc(CNC(=O)/C=C/c2ccc(C(C)(C)C)cc2OCCOC)cc(F)c1NS(C)(=O)=O [Example 23, 3-[4-tert-Butyl-2-(2-methoxy-ethoxy)-phenyl]-N-(3-fluoro-4-methanesulfonylamino-5-vinyl-benzyl)-acrylamide] | 67

Now from value to compound:

Row | IC50 [nM] | Compound
14 | 76 | C=Cc1cc(CNC(=O)/C=C/c2ccc(C(C)(C)C)cc2NCCOC)cc(F)c1NS(C)(=O)=O [Example 27, 3-[4-tert-Butyl-2-(2-methoxyethylamino)phenyl]-N-(3-fluoro-4-methanesulfonylamino-5-vinylbenzyl)acrylamide]
15 | 73 | C=Cc1cc(CNC(=O)/C=C/c2ccc(C(C)(C)C)cc2OC)cc(F)c1NS(C)(=O)=O [Example 28, 3-(4-tert-Butyl-2-methoxyphenyl)-N-(3-fluoro-4-methanesulfonylamino-5-vinyl-benzyl)acrylamide]
16 | 68 | C=CCOc1cc(C(C)(C)C)ccc1/C=C/C(=O)NCc1cc(F)c(NS(C)(=O)=O)c(C=C)c1 [Example 30, 3-(2-Allyloxy-4-tert-butylphenyl)-N-(3-fluoro-4-methanesulfonylamino-5-vinylbenzyl)acrylamide]
17 | 490 | C=Cc1cc(CNC(=O)/C=C/c2ccc(C(C)(C)C)cc2NCCC(C)C)cc(F)c1NS(C)(=O)=O [Example 32, 3-[4-tert-butyl-2-(3-methylbutylamino)phenyl]-N-(3-fluoro-4-methanesulfonylamino-5-vinylbenzyl)acrylamide]
18 | 170 | C=Cc1cc(CNC(=O)/C=C/c2ccc(C(C)(C)C)cc2NC(C)C)cc(F)c1NS(C)(=O)=O [Example 34, 3-(4-tert-Butyl-2-isopropylaminophenyl)-N-(3-fluoro-4-methanesulfonylamino-5-vinylbenzyl)acrylamide]
19 | 33 | C=Cc1cc([C@@H](C)NC(=O)CCc2ccc(C(C)(C)C)cc2)cc(F)c1NS(C)(=O)=O [Example 35, (R)-3-(4-tert-Butylphenyl)-N-[1-(3-fluoro-4-methanesulfonylamino-5-vinylphenyl)ethyl]propionamide]
20 | 54 | C=Cc1cc([C@@H](C)NC(=O)/C=C/c2ccc(C(C)(C)C)cc2)cc(F)c1NS(C)(=O)=O [Example 36, (R)-3-(4-tert-Butylphenyl)-N-[1-(3-fluoro-4-methanesulfonylamino-5-vinylphenyl)ethyl]acrylamide]
21 | 49 | C=Cc1cc(CNC(=O)/C(C)=C/c2ccc(C(C)(C)C)cc2)cc(F)c1NS(C)(=O)=O [Example 37, 3-(4-tert-Butylphenyl)-N-(3-fluoro-4-methanesulfonylamino-5-vinylbenzyl)-2-methylacrylamide]
22 | 270 | C=Cc1cc(CNC(=O)/C(F)=C/c2ccc(C(C)(C)C)cc2)cc(F)c1NS(C)(=O)=O [Example 38, 3-(4-tert-Butylphenyl)-2-fluoro-N-(3-fluoro-4-methanesulfonylamino-5-vinylbenzyl)acrylamide]
23 | 290 | C=Cc1cc(CNC(=O)/C=C/c2ccc(C(C)(C)C)cc2OC2CCOCC2)cc(F)c1NS(C)(=O)=O [Example 40, 3-[4-tert-Butyl-2-(tetrahydropyran-4-yloxy)phenyl]-N-(3-fluoro-4-methanesulfonylamino-5-vinylbenzyl)acrylamide]
24 | 22 | C=Cc1cc([C@@H](C)NC(=O)/C(C)=C/c2ccc(C(C)(C)C)cc2)ccc1NS(C)(=O)=O [Example 42, (R)-3-(4-tert-Butylphenyl)-N-[1-(4-methanesulfonylamino-3-vinylphenyl)ethyl]-2-methylacrylamide]
25 | 67 | C=Cc1cc(CNC(=O)C(C)Cc2ccc(C(C)(C)C)cc2)cc(F)c1NS(C)(=O)=O (stereo not drawn) [Example 43, 3-(4-tert-Butylphenyl)-N-(3-fluoro-4-methanesulfonylamino-5-vinylbenzyl)-2-methylpropionamide]
26 | 170 | C#Cc1cc(CNC(=O)CCc2ccc(C(C)(C)C)cc2)cc(F)c1NS(C)(=O)=O [Example 47, 3-(4-tert-butyl-phenyl)-N-(3-ethynyl-5-fluoro-4-methanesulfonylamino-benzyl)-propionamide]
27 | 99 | C=Cc1cc([C@@H](C)NC(=O)Nc2ccc(C(C)(C)C)cc2)ccc1NS(C)(=O)=O [Example 53, (R)—N-(4-{1-[3-(4-tert-Butylphenyl)ureido]ethyl}-2-vinylphenyl)methanesulfonamide]
28 | 170 | C#Cc1cc([C@@H](C)NC(=O)Nc2ccc(C(C)(C)C)cc2)ccc1NS(C)(=O)=O [Example 55, (R)—N-(4-{1-[3-(4-tert-Butylphenyl)ureido]ethyl}-2-ethynylphenyl)methanesulfonamide]
29 | 500 | C=Cc1cc(CNC(=O)Nc2ccc(C(C)(C)C)cc2)cc(F)c1NS(C)(=O)=O [Example 57, N-{4-[3-(4-tert-Butylphenyl)ureidomethyl]-2-fluoro-6-vinylphenyl}methanesulfonamide]
30 | 450 | C=Cc1cc([C@@H](C)NC(=O)Nc2ccc(C(C)(C)C)cc2)ccc1NS(=O)(=O)C=C [Example 58, Ethenesulfonic Acid (4-{1-[3-(4-tert-butylphenyl)ureido]ethyl}-2-vinylphenyl)amide]
